Test system: 186277-243-T-J2-PDC complex spheroid growth
Assay: Anticancer human tumor 186277-243-T-J2-PDC patient-derived colon adenocarcinoma cell line growth inhibition [AhR]
Conditions: for IC50: curve of first compound; for viability, T/C: stronger effect = lower value
Outline: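 Agents were dosed in half-log steps down from roughly clinical Cmax, or from 10 microM where Cmax was unknown, alone and with AhR antagonists. Read-out: percent test/control growth of tumor spheroids containing HUVEC and MSC stromal cells.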

[1] = second compound 0.1 µM, first compound 0.000949 µM
[2] = second compound 0.1 µM, first compound 0.003 µM
[3] = second compound 0.1 µM, first compound 0.00949 µM
[4] = second compound 0.1 µM, first compound 0.03 µM
[5] = second compound 0.1 µM, first compound 0.0949 µM
[6] = second compound 0.1 µM, first compound 0.3 µM
[7] = second compound 0.316 µM, first compound 0.000949 µM
[8] = second compound 0.316 µM, first compound 0.003 µM
[9] = second compound 0.316 µM, first compound 0.00949 µM
[10] = second compound 0.316 µM, first compound 0.03 µM
[11] = second compound 0.316 µM, first compound 0.0949 µM
[12] = second compound 0.316 µM, first compound 0.3 µM
[13] = second compound 1 µM, first compound 0.000949 µM
[14] = second compound 1 µM, first compound 0.003 µM
[15] = second compound 1 µM, first compound 0.00949 µM
[16] = second compound 1 µM, first compound 0.03 µM
[17] = second compound 1 µM, first compound 0.0949 µM
[18] = second compound 1 µM, first compound 0.3 µM
[19] = second compound 3.16 µM, first compound 0.000949 µM
[20] = second compound 3.16 µM, first compound 0.003 µM
[21] = second compound 3.16 µM, first compound 0.00949 µM
[22] = second compound 3.16 µM, first compound 0.03 µM
[23] = second compound 3.16 µM, first compound 0.0949 µM
[24] = second compound 3.16 µM, first compound 0.3 µM
[25] = second compound 10 µM, first compound 0.000949 µM
[26] = second compound 10 µM, first compound 0.003 µM
[27] = second compound 10 µM, first compound 0.00949 µM
[28] = second compound 10 µM, first compound 0.03 µM
[29] = second compound 10 µM, first compound 0.0949 µM
[30] = second compound 10 µM, first compound 0.3 µM
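Note: spheroids exposed to compounds for seven days before the viability read.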
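Throughout, for viability, T/C: luminescent signal used as a stand-in for viable cell amount; 100% = DMSO vehicle control wells.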

`CC(C)CC(NC(=O)C(Cc1ccccc1)NC(=O)c1cnccn1)B(O)O` (stereo not given) + Cc1ccccc1N=Nc1ccc(NC(=O)c2ccnn2C)c(C)c1 was tested, and the IC50 (second compound 0.1 µM) was 17.7 nM, the IC50 (second compound 0.316 µM) was 16.8 nM and the IC50 (second compound 1 µM) was 16.2 nM. For the same molecule, the IC50 (second compound 3.16 µM) was 15.9 nM, the IC50 (second compound 10 µM) was 16.7 nM and the viability, T/C [1] was 101%. For the same molecule, the viability, T/C [2] was 108%, the viability, T/C [3] was 109% and the viability, T/C [4] was 2.71%. It also gave a viability, T/C [5] of 1.36%, a viability, T/C [6] of 0.12% and a viability, T/C [7] of 104%. For the same molecule, the viability, T/C [8] was 118%, the viability, T/C [9] was 97.3% and the viability, T/C [10] was 1.86%. It also gave a viability, T/C [11] of 0.39%, a viability, T/C [12] of 0.12% and a viability, T/C [13] of 99.8%. For the same molecule, the viability, T/C [14] was 98.2%, the viability, T/C [15] was 91.5% and the viability, T/C [16] was 1.95%. It also gave a viability, T/C [17] of 1.08%, a viability, T/C [18] of 0.12% and a viability, T/C [19] of 104%. For the same molecule, the viability, T/C [20] was 95.4%, the viability, T/C [21] was 89.1% and the viability, T/C [22] was 1.92%. For the same molecule, the viability, T/C [23] was 0.77%, the viability, T/C [24] was 0.14% and the viability, T/C [25] was 96%. It also gave a viability, T/C [26] of 90.1%, a viability, T/C [27] of 98.6% and a viability, T/C [28] of 3.12%. It also gave a viability, T/C [29] of 0.43% and a viability, T/C [30] of 0.21%.

For `CCc1c2c(nc3ccc(O)cc13)-c1cc3c(c(=O)n1C2)COC(=O)[C@]3(O)CC` + Cc1ccccc1N=Nc1ccc(NC(=O)c2ccnn2C)c(C)c1, the IC50 (second compound 0.1 µM) was 74 nM, the IC50 (second compound 0.316 µM) was 66.3 nM and the IC50 (second compound 1 µM) was 66.6 nM. The IC50 (second compound 3.16 µM) was 60.6 nM, the IC50 (second compound 10 µM) was 61.4 nM and the viability, T/C [1] was 119%. It also gave a viability, T/C [2] of 143%, a viability, T/C [3] of 114% and a viability, T/C [4] of 81.7%. The viability, T/C [5] was 42.6%, the viability, T/C [6] was 25.4% and the viability, T/C [7] was 114%. The viability, T/C [8] was 145%, the viability, T/C [9] was 123% and the viability, T/C [10] was 78%. For the same molecule, the viability, T/C [11] was 40.5%, the viability, T/C [12] was 27% and the viability, T/C [13] was 128%. It also gave a viability, T/C [14] of 157%, a viability, T/C [15] of 123% and a viability, T/C [16] of 80.5%. For the same molecule, the viability, T/C [17] was 37.9%, the viability, T/C [18] was 24.2% and the viability, T/C [19] was 125%. It also gave a viability, T/C [20] of 138%, a viability, T/C [21] of 119% and a viability, T/C [22] of 77%. It also gave a viability, T/C [23] of 33.6%, a viability, T/C [24] of 21.1% and a viability, T/C [25] of 106%. For the same molecule, the viability, T/C [26] was 114%, the viability, T/C [27] was 106% and the viability, T/C [28] was 76.6%. For the same molecule, the viability, T/C [29] was 34.2% and the viability, T/C [30] was 21.9%.

In the case of `COc1cc(Nc2ncc3c(n2)-c2ccc(Cl)cc2C(c2c(F)cccc2OC)=NC3)ccc1C(=O)O` + Cc1ccccc1N=Nc1ccc(NC(=O)c2ccnn2C)c(C)c1, the IC50 (second compound 0.1 µM) is reported as > 10000 nM, the IC50 (second compound 0.316 µM) is reported as > 10000 nM and the IC50 (second compound 1 µM) is reported as > 10000 nM. The IC50 (second compound 3.16 µM) was > 10000 nM, the IC50 (second compound 10 µM) was > 10000 nM and the viability, T/C (second compound 0.1 µM, first compound 0.0316 µM) was 132%. For the same molecule, the viability, T/C (second compound 0.1 µM, first compound 0.1 µM) was 125%, the viability, T/C (second compound 0.1 µM, first compound 0.316 µM) was 117% and the viability, T/C (second compound 0.1 µM, first compound 1 µM) was 107%. The viability, T/C (second compound 0.1 µM, first compound 3.16 µM) was 115%, the viability, T/C (second compound 0.1 µM, first compound 10 µM) was 120% and the viability, T/C (second compound 0.316 µM, first compound 0.0316 µM) was 134%. It also gave a viability, T/C (second compound 0.316 µM, first compound 0.1 µM) of 119%, a viability, T/C (second compound 0.316 µM, first compound 0.316 µM) of 114% and a viability, T/C (second compound 0.316 µM, first compound 1 µM) of 108%. It also gave a viability, T/C (second compound 0.316 µM, first compound 3.16 µM) of 101%, a viability, T/C (second compound 0.316 µM, first compound 10 µM) of 117% and a viability, T/C (second compound 1 µM, first compound 0.0316 µM) of 130%. For the same molecule, the viability, T/C (second compound 1 µM, first compound 0.1 µM) was 123%, the viability, T/C (second compound 1 µM, first compound 0.316 µM) was 114% and the viability, T/C (second compound 1 µM, first compound 1 µM) was 107%. For the same molecule, the viability, T/C (second compound 1 µM, first compound 3.16 µM) was 107%, the viability, T/C (second compound 1 µM, first compound 10 µM) was 117% and the viability, T/C (second compound 3.16 µM, first compound 0.0316 µM) was 133%. For the same molecule, the viability, T/C (second compound 3.16 µM, first compound 0.1 µM) was 118%, the viability, T/C (second compound 3.16 µM, first compound 0.316 µM) was 110% and the viability, T/C (second compound 3.16 µM, first compound 1 µM) was 103%. For the same molecule, the viability, T/C (second compound 3.16 µM, first compound 3.16 µM) was 106%, the viability, T/C (second compound 3.16 µM, first compound 10 µM) was 114% and the viability, T/C (second compound 10 µM, first compound 0.0316 µM) was 108%. For the same molecule, the viability, T/C (second compound 10 µM, first compound 0.1 µM) was 104%, the viability, T/C (second compound 10 µM, first compound 0.316 µM) was 105% and the viability, T/C (second compound 10 µM, first compound 1 µM) was 96.5%. It also gave a viability, T/C (second compound 10 µM, first compound 3.16 µM) of 93.3% and a viability, T/C (second compound 10 µM, first compound 10 µM) of 102%.
